From patent US10617118B2, “Low foam surfactant composition and methods of making the same” (Momentive Performance Materials Inc., priority 2015, dated 2020)

How the values were obtained:
[1] = test system: Velvetleaf (Abutilion theophrasti); assay: Effect of adjuvant on glyphosate-IPA efficacy on velvetleaf (spray application); type: in vivo; details: 1.0 wt % Gly-IPA, adjuvant 0.1 wt %, 100 L/ha, simulated rain 2 hours after treatment, visual scale of 0-100%
Protocol: Velvetleaf plants were grown from seed indoor, under full sunlight intensity lamps, in individual pots, and then thinned to one plant per pot. Plants were fertilized as necessary (NPK 20-20-20). Glyphosate spray applications were applied when the plants reached the 3-4 true leaf stage.
Velvetleaf was treated with 1.0 wt % Gly-IPA, with and without adjuvant, at a spray volume equivalent to 100 L/ha. When adjuvant was used, it was included in the spray at 0.1 wt %. Applications were made using a track sprayer with a TeeJet 8002 nozzle. Simulated rain (2.5 cm) was applied 2 hours after treatment. Glyphosate efficacy was determined 7 and 14 days after treatment (DAT). using a visual scale of 0-100%, where 0 indicates no effect and 100 indicates total weed control.

[2] = Spreading: spread diameter of 10 μL drop on polystyrene Petri-dish; type: physicochemical; details: Table 11, after 30 seconds
Protocol: Spreading was determined using between 0.1% and 0.4% (actives) surfactant. Solutions were prepared in Milli-Pore water (deionized) where a 10 μL drop was placed on a polystyrene surface (Petri-dish) and the spread diameter, in mm is determined after 30 seconds.

Row | Spread Diameter (mm) 0.2 Wt % [2] | Compound | Glyphosate-IPA efficacy on velvetleaf, 7 DAT ([1]; 7 DAT) | Glyphosate-IPA efficacy on velvetleaf, 14 DAT ([1]; 14 DAT)
1 |  | CC(C)N.O=C(O)CNCP(=O)(O)O [None, glyphosate-isopropylamine] | 33% | 37%
2 | 7 mm | Triton X-100 |  | 
